Test results: patent US12612389B2, “Benzofuran-based N-acylhydrazone derivative and pharmaceutical composition comprising same” (KOREA RESEARCH INSTITUTE OF BIOSCIENCE AND BIOTECHNOLOGY, priority 2019, dated 2026)
One block for each molecule: values may come before it.

Tests used:
[1] = test system: HeLa cells; test: Anti-proliferative activity test in HeLa cell line (MTT); format: cell-based; conditions: Homo sapiens, 48 h, grown for 2 days, mean of 2
Procedure: HeLa cells (American Type Culture Collection: ATCC, USA), a human cervical cancer cell line, were seeded in a 96-well plate at 3×10^3 cells/well, and the cells were then treated with compounds of Examples or Comparative Example according to the present invention and grown for 2 days. Then, MTT (3-(4,5-dimethylthiazol-2-yl)-2,5-diphenyltetrazolium bromide) reagent was added at 10 μL/well. After 2 hours, absorbance was measured at “OD 450” and statistical values were obtained using Prism™6 program. The data shown in Table below are mean values of results obtained by repeating the analysis twice.

[2] = test system: K562/ADR; test: Anti-proliferative activity test in cancer cells exhibiting multidrug resistance (MTT); format: cell-based; conditions: ratio IC50 K562/ADR to IC50 K562
Procedure: (§1) HeLa cells (American Type Culture Collection: ATCC, USA), a human cervical cancer cell line, were seeded in a 96-well plate at 3×10^3 cells/well, and the cells were then treated with compounds of Examples or Comparative Example according to the present invention and grown for 2 days. Then, MTT (3-(4,5-dimethylthiazol-2-yl)-2,5-diphenyltetrazolium bromide) reagent was added at 10 μL/well. […] The data shown in Table below are mean values of results obtained by repeating the analysis twice. Specifically, K562 and MCF7 (Bio Evaluation Center, Korea Research Institute of Bioscience and Biotechnology, Korea) and multidrug-resistant cell lines of each of these cell lines, i.e., K562/ADR and MCF7/ADR (Bio Evaluation Center, Korea Research Institute of Bioscience and Biotechnology, Korea), were cultured on microtiter plates (1-3×10^3 cells/well). […] The data shown in Table below are mean values of results obtained by repeating the analysis three times.

[3] = test system: MCF7/ADR; test: as above; format: cell-based; conditions: ratio IC50 MCF7/ADR to IC50 MCF7
Procedure: as §1

[4] = Stability test in plasma; format: in vitro ADME; conditions: Rat plasma, 37° C.; for Residue % (180 minutes elapsed), Mean: 5 mM
Procedure: In order to test the stability (in vivo) of the Example compounds according to the present invention, the compounds of Examples 2, 3, 4, 8 and 15 were administered intravenously, and plasma concentrations over time were observed. In addition, procaine was used as a positive control. Plasma stability was measured three times by administering the test compound at a concentration of 5 mM to human, rat, or mouse plasma (90 μL) at 37° C. Results thereof are shown in Table below and FIGS. 3A to 3E.

[5] = Metabolic stability test in liver microsomes; format: in vitro ADME; conditions: 0.5 mg protein/mL, 37° C.
Procedure: (§2) The test compounds at a concentration of […] were administered in the presence or absence of NADPH (1 mM) to liver […] (0.5 mg protein/mL) of humans, rats and mice, and metabolic stability was tested at 37° C. for 30 minutes. In addition, buspirone was used as a positive control. Results thereof are shown in Table below and FIGS. 4A to 4E.

[6] = Stability in buffer (line of the metabolic stability test); format: in vitro ADME
Procedure: as §2

[7] = Stability test in plasma; format: in vitro ADME; design: Residue % (180 minutes elapsed), Mean: dose or concentration left out as unconfirmed; conditions: 37° C.
Procedure: In order to test the stability (in vivo) of the Example compounds according to the present invention, the compounds of Examples 2, 3, 4, 8 and 15 were administered intravenously, and plasma concentrations over time were observed. In addition, procaine was used as a positive control. Plasma stability was measured three times by administering the test compound at a concentration […] to human, rat, or mouse plasma (90 μL) at 37° C. Results thereof are shown in Table below and FIGS. 3A to 3E.

SMILES: CCOCCn1c(Cl)c(/C=N/NC(=O)c2cc3cc(C)ccc3o2)c2cc(OC(F)(F)F)ccc21 [Example 12, (E)-N′-[(2-chloro-1-(2-ethoxyethyl)-5-(trifluoromethoxy)-1H-indol-3-yl]methylene}-5-methylbenzofuran-2-carbohydrazide]
IC50 [1]: 0.619 µM

SMILES: COc1cc2c(c(OC)c1OC)-c1ccc(OC)c(=O)cc1[C@@H](NC(C)=O)CC2 [Colchicine, colchicine]
Resistance Factor [2]: 22.91
Resistance Factor [3]: 34.15

SMILES: Cc1ccc2oc(C(=O)N/N=C/c3c(Cl)n(C)c4ccccc34)cc2c1 [Example 2, (E)-N′-[(2-chloro-1-methyl-1H-indol-3-yl)methylene]-5-methylbenzofuran-2-carbohydrazide]
IC50 [1]: 0.892 µM
half-life at 5 mM [4]: > 3 h
Residue % (180 minutes elapsed), Mean [4]: 75.82%
Residue (%) after culturing for 30 min ([5]; Human, +NADPH): 8.69 ± 0.44%
Residue (%) after culturing for 30 min ([5]; Human, −NADPH): 36.40 ± 1.90%
Residue (%) after culturing for 30 min ([5]; Mouse, +NADPH): 2.84 ± 0.34%
Residue (%) after culturing for 30 min ([5]; Mouse, −NADPH): 11.59 ± 1.06%
Residue (%) after culturing for 30 min ([5]; Rat, +NADPH): 2.99 ± 0.64%
Residue (%) after culturing for 30 min ([5]; Rat, −NADPH): 41.45 ± 0.93%
Residue (%) after culturing for 30 min [6]: 77.94 ± 7.04%
Residue % (180 minutes elapsed), Mean ([7]; Human plasma): 90.43%
half-life at 5 mM ([7]; Human plasma): > 3 h
Residue % (180 minutes elapsed), Mean ([7]; Mouse plasma): 55.82%
half-life at 5 mM ([7]; Mouse plasma): > 3 h

SMILES: CCOC(=O)Cn1c(C)c(/C=N/NC(=O)c2cc3c(ccc4ccccc43)o2)c2ccccc21 [Comparative Example 1, (E)-ethyl 2-(2-methyl-3-((2-(naphtho[2,1-b]furan-2-carbonyl)hydrazono)methyl)-1H-indol-1-yl)acetate, reference compound]
IC50 [1]: 0.562 µM

SMILES: O=C1CC2(CCCC2)CC(=O)N1CCCCN1CCN(c2ncccn2)CC1 [Buspirone, buspirone, reference compound]
Residue (%) after culturing for 30 min ([5]; Human, +NADPH): 2.21 ± 0.03%
Residue (%) after culturing for 30 min ([5]; Human, −NADPH): 91.06 ± 0.40%
Residue (%) after culturing for 30 min ([5]; Mouse, +NADPH): 0.32 ± 0.05%
Residue (%) after culturing for 30 min ([5]; Mouse, −NADPH): 94.74 ± 0.74%
Residue (%) after culturing for 30 min ([5]; Rat, +NADPH): 0.41 ± 0.02%
Residue (%) after culturing for 30 min ([5]; Rat, −NADPH): 93.08 ± 1.21%

SMILES: CCOCCn1c(Cl)c(/C=N/NC(=O)c2cc3cc(C)ccc3o2)c2cc(F)ccc21 [Example 10, (E)-N′-[(2-chloro-1-(2-ethoxyethyl)-5-fluoro-1H-indol-3-yl]methylene}-5-methylbenzofuran-2-carbohydrazide]
IC50 [1]: 0.221 µM

SMILES: CCOCCn1c(Br)c(/C=N/NC(=O)c2cc3cc(C)ccc3o2)c2ccccc21 [Example 5, (E)-N′-[(2-bromo-1-(2-ethoxyethyl)-1H-indol-3-yl]methylene}-5-methylbenzofuran-2-carbohydrazide]
IC50 [1]: 0.263 µM

SMILES: CCOCCn1c(Cl)c(/C=N/NC(=O)c2cc3cc(C)ccc3o2)c2ccc(OC)cc21 [Example 9, (E)-N′-[(2-chloro-1-(2-ethoxyethyl)-6-methoxy-1H-indol-3-yl]methylene}-5-methylbenzofuran-2-carbohydrazide]
IC50 [1]: 0.232 µM

SMILES: CCOCCn1c(Cl)c(/C=N/NC(=O)c2cc3cc(C)ccc3o2)c2cc(Cl)ccc21 [Example 11, (E)-N′-[(2,5-dichloro-1-(2-ethoxyethyl)-1H-indol-3-yl]methylene}-5-methylbenzofuran-2-carbohydrazide]
IC50 [1]: 0.243 µM

SMILES: CCOC(=O)Cn1c(Cl)c(/C=N/NC(=O)c2cc3cc(C)ccc3o2)c2ccccc21 [Example 3, ethyl (E)-2-{2-chloro-3-[(2-(5-methylbenzofuran-2-carbonyl)hydrazinylidene)methyl]-1H-indol-1-yl}acetate]
IC50 [1]: 0.243 µM
half-life at 5 mM [4]: 0.0767 h
Residue % (180 minutes elapsed), Mean [4]: 0.21%
Residue (%) after culturing for 30 min ([5]; Human, +NADPH): 12.34 ± 0.69%
Residue (%) after culturing for 30 min ([5]; Human, −NADPH): 22.26 ± 0.72%
Residue (%) after culturing for 30 min ([5]; Mouse, +NADPH): 2.50 ± 0.11%
Residue (%) after culturing for 30 min ([5]; Mouse, −NADPH): 6.81 ± 0.17%
Residue (%) after culturing for 30 min ([5]; Rat, +NADPH): 1.39 ± 0.12%
Residue (%) after culturing for 30 min ([5]; Rat, −NADPH): 8.53 ± 0.46%
Residue (%) after culturing for 30 min [6]: 89.02 ± 4.39%
Residue % (180 minutes elapsed), Mean ([7]; Human plasma): 56.52%
half-life at 5 mM ([7]; Human plasma): > 3 h
Residue % (180 minutes elapsed), Mean ([7]; Mouse plasma): 0.12%
half-life at 5 mM ([7]; Mouse plasma): 0.0933 h

SMILES: Cc1ccc2oc(C(=O)N/N=C/c3c(Cl)[nH]c4ccccc34)cc2c1 [Example 1, (E)-N′-[(2-chloro-1H-indol-3-yl)methylene]-5-methylbenzofuran-2-carbohydrazide]
IC50 [1]: 3.88 µM

SMILES: COCCn1c(Cl)c(/C=N/NC(=O)c2cc3cc(C)ccc3o2)c2ccccc21 [Example 7, (E)-N′-[(2-chloro-1-(2-methoxyethyl)-1H-indol-3-yl]methylene}-5-methylbenzofuran-2-carbohydrazide]
IC50 [1]: 0.233 µM

SMILES: CCOCCn1c(C(F)(F)F)c(/C=N/NC(=O)c2cc3cc(C)ccc3o2)c2ccccc21 [Example 6, (E)-N′-{[1-(2-ethoxyethyl)-2-(trifluoromethyl)-1H-indol-3-yl]methylene}-5-methylbenzofuran-2-carbohydrazide]
IC50 [1]: 1.22 µM

Continued, values first:

IC50 [1]: 0.455 µM
SMILES: CCOCCn1c(Cl)c(/C=N/NC(=O)c2cc3cc(Cl)ccc3o2)c2ccccc21 [Example 16, (E)-5-chloro-N′-{[2-chloro-1-(2-ethoxyethyl)-1H-indol-3-yl]methylene}benzofuran-2-carbohydrazide]

IC50 [1]: 0.337 µM
SMILES: CCOCCn1c(Cl)c(/C=N/NC(=O)c2cc3cc(C)ccc3o2)c2cc(C)ccc21 [Example 13, (E)-N′-[(2-chloro-1-(2-ethoxyethyl)-5-methyl-1H-indol-3-yl]methylene}-5-methylbenzofuran-2-carbohydrazide]

IC50 [1]: 0.563 µM
SMILES: CCOCCn1c(Cl)c(/C=N/NC(=O)c2cc3c(OC)cc(OC)cc3o2)c2ccccc21 [Example 18, (E)-N′-[(2-chloro-1-(2-ethoxyethyl)-1H-indol-3-yl]methylene}-4,6-dimethoxybenzofuran-2-carbohydrazide]

IC50 [1]: 0.262 µM
SMILES: CCOCCn1c(Cl)c(/C=N/NC(=O)c2cc3cc(OC)ccc3o2)c2ccccc21 [Example 14, (E)-N′-[(2-chloro-1-(2-ethoxyethyl)-1H-indol-3-yl]methylene}-5-methoxybenzofuran-2-carbohydrazide]

Residue % (180 minutes elapsed), Mean [4]: 1.89%
Residue % (180 minutes elapsed), Mean ([7]; Human plasma): 0.45%
Residue % (180 minutes elapsed), Mean ([7]; Mouse plasma): 1.06%
SMILES: CCN(CC)CCOC(=O)c1ccc(N)cc1 [Procaine, procaine, reference compound]

IC50 [1]: 0.5 µM
SMILES: CCOC(=O)Cn1c(C)c(/C=N/NC(=O)c2cc3c(OC)cc(OC)cc3o2)c2ccccc21 [Example 20, (E)-ethyl-2-(3-((2-(4,6-dimethoxybenzofuran-2-carbonyl) hydrazinylidene)methyl)-2-methyl-1H-indol-1-yl)acetate]

IC50 [1]: 4.52 µM
SMILES: CCOCCn1c(Cl)c(/C=N/NC(=O)c2cc3cc(NC(C)=O)ccc3o2)c2ccccc21 [Example 19, (E)-N′-{2-[2-((2-chloro-1-(2-ethoxyethyl)-1H-indol-3-yl)methylene]hydrazine-1-carbonyl}benzofuran-5-yl)acetamide]
